# Assay results: patent US6737383B1, “Herbicidal oxadiazolidines” (priority 1999, dated 2004)
# What was measured:
# blackgrass = assay: Test B pre/postemergence blackgrass; assay type: in vivo, Alopecurus myosuroides
# Method in brief: (§1)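 Herbicidal effect was estimated by eye on a ten-point control scale after plants spent twelve to sixteen days in a greenhouse following soil or foliar treatment. Foliar sprays targeted plants at one to four leaves; all doses were formulated in a non-phytotoxic solvent with surfactant.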
# velvetleaf = assay: Test B pre/postemergence velvetleaf; assay type: in vivo, Abutilon theophrasti
# Method in brief: as §1
# bedstraw = assay: Test B pre/postemergence bedstraw; assay type: in vivo, Galium aparine
# Method in brief: as §1
# smallflower flatsedge = assay: Test B flood test smallflower flatsedge; assay type: in vivo, Cyperus difformis
# Method in brief: (§2)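 Plants were grown to the 2-leaf stage before treatment with test chemical, then held in a greenhouse for twelve to sixteen days. Injury was visually rated against untreated controls on a 0–10 scale, where 0 is no effect and 10 is complete control.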
# crabgrass = assay: Test B pre/postemergence crabgrass; assay type: in vivo, Digitaria sanguinalis
# Method in brief: as §1
# wheat = assay: Test B pre/postemergence wheat; assay type: in vivo, Triticum aestivum
# Method in brief: as §1
# surinam grass = assay: Test B pre/postemergence surinam grass; assay type: in vivo, Brachiaria decumbens
# Method in brief: as §1
# giant foxtail = assay: Test B pre/postemergence giant foxtail; assay type: in vivo, Setaria faberii
# Method in brief: as §1
# duck salad = assay: Test B flood test duck salad; assay type: in vivo, Heteranthera limosa
# Method in brief: as §2
# wild oat = assay: Test B pre/postemergence wild oat; assay type: in vivo, Avena fatua
# Method in brief: as §1
# soybean = assay: Test B pre/postemergence soybean; assay type: in vivo, Glycine max
# Method in brief: as §1
# rape = assay: Test B pre/postemergence rape; assay type: in vivo, Brassica napus
# Method in brief: as §1
# morningglory = assay: Test B pre/postemergence morningglory; assay type: in vivo, Ipomoea hederacea
# Method in brief: as §1
# bamyardgrass = assay: Test B flood test barnyardgrass; assay type: in vivo, Echinochloa crus-galli
# Method in brief: as §2
# cocklebur = assay: Test B pre/postemergence cocklebur; assay type: in vivo, Xanthium strumarium
# Method in brief: as §1
# corn = assay: Test B pre/postemergence corn; assay type: in vivo, Zea mays
# Method in brief: as §1
# [1] = Postemergence, Rate 62 g/ha, scale of 0 to 10, 0 is no effect, 10 is complete control
# [2] = Postemergence, Rate 125 g/ha, scale 0 to 10, 0 is no effect, 10 is complete control
# [3] = Postemergence, Rate 500 g/ha, scale of 0 to 10 where 0 is no effect and 10 is complete control
# [4] = Preemergence, Rate 62 g/ha, scale 0 to 10 (0 no effect, 10 complete control)
# [5] = Preemergence, Rate 125 g/ha, scale 0 to 10, 0 is no effect, 10 is complete control
# [6] = Preemergence, Rate 500 g/ha, scale of 0 to 10 where 0 is no effect and 10 is complete control
# [7] = Rate 250 g/ha, Postemergence, scale of 0 to 10 where 0 is no effect and 10 is complete control
# [8] = Rate 62 g/ha, flood test species, Pre-emergence, visual evaluation after twelve to sixteen days
# [9] = Rate 125 g/ha, under heading Pre-emergence, flood test species, visual evaluation after twelve to sixteen days
# [10] = Rate 250 g/ha, Pre-emergence (flood test species), scale 0 to 10, 0 is no effect, 10 is complete control
# [11] = Rate 500 g/ha, Pre-emergence section of Table B, 0 to 10 scale (0 no effect, 10 complete control)
smiles,measurement,setting,value
CCCCn1c(=O)on(C(=O)N(c2ccccc2)C(C)C)c1=O [Compound 556],Blackgrass plant response rating,blackgrass; [1],0
same,Blackgrass plant response rating,blackgrass; [2],3
same,"Plant response rating, Blackgrass",blackgrass; [3],6
same,Blackgrass plant response rating,blackgrass; [4],6
same,Blackgrass plant response rating,blackgrass; [5],9
same,Blackgrass plant response rating (0 to 10 scale),"blackgrass; Preemergence, Rate 250 g/ha",10
same,Blackgrass plant response rating,blackgrass; [6],10
same,"Plant response rating, Blackgrass",blackgrass; [7],3
same,Velvetleaf plant response rating,velvetleaf; [1],0
same,"Plant response rating, Velvetleaf",velvetleaf; [3],2
same,Velvetleaf plant response rating,velvetleaf; [4],0
same,Velvetleaf plant response rating,velvetleaf; [5],2
same,Velvetleaf plant response rating (0 to 10 scale),"velvetleaf; Preemergence, Rate 250 g/ha",3
same,Velvetleaf plant response rating,velvetleaf; [6],3
same,"Plant response rating, Velvetleaf",velvetleaf; [7],0
same,Bedstraw plant response rating,bedstraw; [1],0
same,Bedstraw plant response rating,bedstraw; [2],0
same,"Plant response rating, Bedstraw",bedstraw; [3],0
same,Bedstraw plant response rating,bedstraw; [4],0
same,Bedstraw plant response rating,bedstraw; [5],0
same,Bedstraw plant response rating (0 to 10 scale),"bedstraw; Preemergence, Rate 250 g/ha",0
same,Bedstraw plant response rating,bedstraw; [6],0
same,"Plant response rating, Bedstraw",bedstraw; [7],0
same,"Plant response rating, S. Flatsedge (0 to 10 scale, 0 is no effect, 10 is complete control)",smallflower flatsedge; [8],0
same,"S. Flatsedge plant response rating (0 to 10 scale, 0 is no effect, 10 is complete control)",smallflower flatsedge; [9],0
same,S. Flatsedge plant response rating,smallflower flatsedge; [10],0
same,S. Flatsedge plant response rating,smallflower flatsedge; [11],0
same,Crabgrass plant response rating,crabgrass; [1],0
same,Crabgrass plant response rating,crabgrass; [2],2
same,"Plant response rating, Crabgrass",crabgrass; [3],2
same,Crabgrass plant response rating,crabgrass; [4],9
same,Crabgrass plant response rating,crabgrass; [5],9
same,Crabgrass plant response rating (0 to 10 scale),"crabgrass; Preemergence, Rate 250 g/ha",9
same,Crabgrass plant response rating,crabgrass; [6],10
same,"Plant response rating, Crabgrass",crabgrass; [7],2
same,Wheat plant response rating,wheat; [1],0
same,"Plant response rating, Wheat",wheat; [3],3
same,Wheat plant response rating,wheat; [4],0
same,Wheat plant response rating,wheat; [5],0
same,Wheat plant response rating (0 to 10 scale),"wheat; Preemergence, Rate 250 g/ha",3
same,Wheat plant response rating,wheat; [6],4
same,"Plant response rating, Wheat",wheat; [7],2
same,B. signalgrass plant response rating,surinam grass; [1],0
same,B. signalgrass plant response rating,surinam grass; [2],2
same,"Plant response rating, B. signalgrass",surinam grass; [3],7
same,B. signalgrass plant response rating,surinam grass; [4],6
same,B. signalgrass plant response rating,surinam grass; [5],7
same,"B. signalgrass plant response rating (0 to 10 scale, 0 is no effect, 10 is complete control)","surinam grass; Preemergence, Rate 250 g/ha",7
same,B. signalgrass plant response rating,surinam grass; [6],9
same,"Plant response rating, B. signalgrass",surinam grass; [7],4
same,Giant foxtail plant response rating,giant foxtail; [1],4
same,Giant foxtail plant response rating,giant foxtail; [2],7
same,"Plant response rating, Giant foxtail",giant foxtail; [3],9
same,Giant foxtail plant response rating,giant foxtail; [4],9
same,Giant foxtail plant response rating,giant foxtail; [5],9
same,Giant foxtail plant response rating (0 to 10 scale),"giant foxtail; Preemergence, Rate 250 g/ha",10
same,Giant foxtail plant response rating,giant foxtail; [6],10
same,"Plant response rating, Giant foxtail",giant foxtail; [7],9
same,"Plant response rating, Ducksalad (0 to 10 scale, 0 is no effect, 10 is complete control)",duck salad; [8],0
same,"Ducksalad plant response rating (0 to 10 scale, 0 is no effect, 10 is complete control)",duck salad; [9],0
same,Ducksalad plant response rating,duck salad; [10],0
same,Ducksalad plant response rating,duck salad; [11],0
same,Wild oats plant response rating,wild oat; [1],2
same,"Plant response rating, Wild oats",wild oat; [3],2
same,Wild oats plant response rating,wild oat; [4],0
same,Wild oats plant response rating,wild oat; [5],0
same,Wild oats plant response rating (0 to 10 scale),"wild oat; Preemergence, Rate 250 g/ha",4
same,Wild oats plant response rating,wild oat; [6],6
same,"Plant response rating, Wild oats",wild oat; [7],2
same,Soybean plant response rating,soybean; [1],0
same,"Plant response rating, Soybean",soybean; [3],8
same,Soybean plant response rating,soybean; [4],0
same,Soybean plant response rating,soybean; [5],0
same,Soybean plant response rating (0 to 10 scale),"soybean; Preemergence, Rate 250 g/ha",0
same,Soybean plant response rating,soybean; [6],0
same,"Plant response rating, Soybean",soybean; [7],3
same,Rape plant response rating,rape; [1],0
same,Rape plant response rating,rape; [2],0
same,"Plant response rating, Rape",rape; [3],2
same,Rape plant response rating,rape; [4],0
same,Rape plant response rating,rape; [5],3
same,Rape plant response rating (0 to 10 scale),"rape; Preemergence, Rate 250 g/ha",3
same,Rape plant response rating,rape; [6],8
same,"Plant response rating, Rape",rape; [7],0
same,Morningglory plant response rating,morningglory; [1],0
same,Morningglory plant response rating,morningglory; [2],2
same,"Plant response rating, Morningglory",morningglory; [3],10
same,Morningglory plant response rating,morningglory; [4],0
same,Morningglory plant response rating,morningglory; [5],0
same,Morningglory plant response rating (0 to 10 scale),"morningglory; Preemergence, Rate 250 g/ha",0
same,Morningglory plant response rating,morningglory; [6],0
same,"Plant response rating, Morningglory",morningglory; [7],4
same,"Plant response rating, Barnyardgrass (0 to 10 scale, 0 is no effect, 10 is complete control)",bamyardgrass; [8],0
same,"Barnyardgrass plant response rating (0 to 10 scale, 0 is no effect, 10 is complete control)",bamyardgrass; [9],0
same,Barnyardgrass plant response rating,bamyardgrass; [10],0
same,Barnyardgrass plant response rating,bamyardgrass; [11],1
same,Cocklebur plant response rating,cocklebur; [1],0
same,Cocklebur plant response rating,cocklebur; [2],0
same,"Plant response rating, Cocklebur",cocklebur; [3],0
same,Cocklebur plant response rating,cocklebur; [4],0
same,Cocklebur plant response rating,cocklebur; [5],0
same,Cocklebur plant response rating (0 to 10 scale),"cocklebur; Preemergence, Rate 250 g/ha",0
same,Cocklebur plant response rating,cocklebur; [6],0
same,"Plant response rating, Cocklebur",cocklebur; [7],0
same,Corn plant response rating,corn; [1],0
same,Corn plant response rating,corn; [2],0
same,"Plant response rating, Corn",corn; [3],0
same,Corn plant response rating,corn; [4],0
same,Corn plant response rating,corn; [5],0
same,Corn plant response rating (0 to 10 scale),"corn; Preemergence, Rate 250 g/ha",0
same,Corn plant response rating,corn; [6],0
same,"Plant response rating, Corn",corn; [7],0
